Data: the SangsterLogP compilation
Values belong to the compound of their own block, whether it stands above or below them.

Experiments:
[1] = method code SF-HPLC, from DOI: 10.1016/j.bmcl.2004.01.062, PMID: 15026043; details: pH 5.5
[2] = pH 7.4
[3] = method code SF-HPLC, from DOI: 10.1021/jm00169a024, PMID: 2194033; details: pH 7.4
[4] = method code SF, from PMID: 26783178
[5] = method code SF-AS, from DOI: 10.1016/0006-2952(90)90117-4, PMID: 2344368; details: pH 7.5
[6] = method code SF-FL, from DOI: 10.1016/0006-2952(96)00248-1, PMID: 8687500
[7] = method code SF-HPLC, from DOI: 10.1023/a:1015956705293, PMID: 3244625
[8] = method code SF-AS, from DOI: 10.1002/qua.560100722
[9] = not given; remark: listed apart in the source
[10] = method code SF-AS, from DOI: 10.1016/s0022-5347(24)07568-2, PMID: 4149453; details: pH 7.5
[11] = method code SF, from DOI: 10.1002/ps.2780350215
[12] = method code SF-GLC, from DOI: 10.1021/jm00240a002, PMID: 1151965
[13] = not given; remark: listed apart in the source
[14] = method code SF, from DOI: 10.1016/0378-5173(85)90077-8
[15] = method code HPLC, from DOI: 10.1016/j.bmcl.2004.01.062, PMID: 15026043; details: pH 5.5
[16] = not given; remark: listed apart in the source
[17] = not given; remark: listed apart in the source
[18] = method code SF-GLC, from DOI: 10.1016/0043-1354(83)90068-4
[19] = not given; remark: listed apart in the source

Structure (SMILES): CN(C)C(=O)Oc1ccc(CC(C(=O)OCC(C)(C)C)C(=O)C2N(S(=O)(=O)c3cnn(C)c3)CSC2(C)C)cc1 (stereo not given)
logD [1]: 3.42

logD [2]: 1.43
Structure (SMILES): CCCNC(=O)[C@H](O)[C@@]1(O)CC[C@H]2[C@@H]3CCC4=CC(=O)C=C[C@]4(C)[C@H]3[C@@H](O)C[C@@]21C

logD [3]: 1.42
Structure (SMILES): CCN1CC(C(O)C(CC2CCCCC2)NC(=O)[C@H](Cc2cnc[nH]2)NC(=O)[C@H](Cc2ccc(OC)cc2)NC(=O)N(C)CC(O)CO)OC1=O (stereo not given in full)

Structure (SMILES): COCCOCCOC(=O)C(Cc1ccc(OC(=O)N(C)C)cc1)NC(=O)C1N(S(=O)(=O)c2cnn(C)c2)CSC1(C)C (stereo not given)
logD [1]: 1.41

logP [4]: 3.78
Structure (SMILES): Cc1ccc(N2C(=O)[C@H](CCCNS(=O)(=O)c3ccc(OC(F)(F)F)cc3)[C@H]2c2ccc(NS(=O)(=O)c3ccc(C)cc3)cc2)cc1

logD [5]: 1.85
Structure (SMILES): COc1cccc2c1C(=O)c1c(O)c3c(c(O)c1C2=O)CC(O)(C(C)=O)CC3OC1CC(NC(C)=O)C(O)C(C)O1 (stereo not given)

logP [6]: -2
Structure (SMILES): COc1cccc2c1C(=O)c1c(O)c3c(c(O)c1C2=O)C[C@@](O)(C(C)=O)C[C@@H]3O[C@H]1C[C@H](NC(=O)CCCNC(=O)[C@@H]2O[C@H](C(=O)O)[C@@H](O)[C@H](O)[C@H]2O)[C@H](O)[C@H](C)O1

logP [7]: 1.43
Structure (SMILES): C[C@]12CCC(=O)C=C1CC[C@@H]1[C@@H]2[C@@H](O)C[C@@]2(C)[C@H]1CC[C@]2(O)C(=O)COC(=O)CCC(N)=O

logD ([8]; pH 7.8): 1.26
Structure (SMILES): COc1cccc2c1C(=O)c1c(O)c3c(c(O)c1C2=O)CC(O)(C(C)=O)CC3OC1CC(NC(=O)CN(C)C)C(O)C(C)O1 (stereo not given)

Structure (SMILES): Cc1cccc2c1OP(=O)(OCC1OC(n3cc(/C=C/Br)c(=O)[nH]c3=O)CC1OC(=O)C(N)C(C)C)OC2 (stereo not given)
logP: -0.1

logP [9]: 6.3
Structure (SMILES): CCCCCCCCc1ccc(OC(=O)Cn2ccc3cc(C(=O)O)ccc32)cc1

Structure (SMILES): CNC(=O)C(O)C1(O)CCC2C3CCC4=CC(=O)C=CC4(C)C3C(O)CC21C (stereo not given)
logD [2]: 1

logD ([8]; pH 8.8): 0.76
Structure (SMILES): COc1cccc2c1C(=O)c1c(O)c3c(c(O)c1C2=O)C[C@@](O)(C(C)=NNC(=O)c1ccccc1)C[C@@H]3O[C@H]1C[C@H](N)[C@H](O)[C@H](C)O1

logP [4]: 3.45
Structure (SMILES): Cc1ccc(N2C(=O)C(CCCNS(=O)(=O)c3ccc(OC(F)(F)F)cc3)C2c2ccc(NS(C)(=O)=O)cc2)cc1 (stereo not given)

logD [10]: 1.33
Structure (SMILES): CCCCCOC(=O)CC[C@H](NC(=O)c1ccc(N(C)Cc2cnc3nc(N)nc(N)c3n2)cc1)C(=O)OCCCCC

logP [11]: 2.04
Structure (SMILES): Cc1cc(=O)c(C(=O)Nc2ccccc2)c(C)n1CCc1ccccc1

logP [9]: 3.1
Structure (SMILES): O=C(Cn1ccc2cc(C(=O)O)ccc21)Oc1ccccc1-c1ccccc1

logP [11]: 2.79
Structure (SMILES): Cc1cc(=O)c(C(=O)Nc2ccccc2Cl)c(C)n1CCc1ccccc1

Structure (SMILES): CCOCC
logP [12]: 0.89

logP [7]: 3.7
Structure (SMILES): COC(=O)CCCCCC(=O)OCC(=O)C1(O)CCC2C3CCC4=CC(=O)CCC4(C)C3C(O)CC21C (stereo not given)

Structure (SMILES): OCCBr
logP [13]: 0.29

logP [14]: 4.37
Structure (SMILES): CCCCCCCC(=O)OCC(=O)[C@@]1(O)CC[C@H]2[C@@H]3CCC4=CC(=O)CC[C@]4(C)[C@H]3[C@@H](O)C[C@@]21C

Structure (SMILES): CCOC(=O)C(Cc1ccc(OC(=O)N(C)C)cc1)NC(=O)C1N(S(=O)(=O)c2cnn(C)c2)CSC1(C)C (stereo not given)
logD [15]: 2.14

logD ([8]; pH 7.8): 0.64
Structure (SMILES): COc1cccc2c1C(=O)c1c(O)c3c(c(O)c1C2=O)CC(O)(C(C)=O)CC3OC1CC(NC(=O)CN)C(O)C(C)O1 (stereo not given)

Structure (SMILES): CN(C)C(=O)Oc1ccc(CC(NC(=O)C2N(S(=O)(=O)c3cnn(C)c3)CSC2(C)C)C(=O)OCOC(=O)C(C)(C)C)cc1 (stereo not given)
logD [15]: 3.14

Structure (SMILES): Cc1cccc2c1OP(=O)(OCC1OC(n3cc(/C=C/Br)c(=O)[nH]c3=O)CC1OC(=O)C1CCCN1)OC2 (stereo not given)
logP: -0.4

logP [14]: 3.3
Structure (SMILES): CCCCCC(=O)OCC(=O)[C@@]1(O)CC[C@H]2[C@@H]3CCC4=CC(=O)CC[C@]4(C)[C@H]3C(=O)C[C@@]21C

logP [16]: 5.2
Structure (SMILES): Cc1cc(C(=O)N2Cc3ccc(C(=O)N(C)CCF)n3Cc3ccccc32)ccc1-c1ccccc1C(F)(F)F

logD [2]: 1.51
Structure (SMILES): C[C@]12C=CC(=O)C=C1CC[C@@H]1[C@@H]2[C@@H](O)C[C@@]2(C)[C@H]1CC[C@]2(O)[C@@H](O)C(=O)NCc1ccccc1

logP [13]: 1.29
Structure (SMILES): CC(C)(C)CO

logP [17]: 4.6
Structure (SMILES): CC(C)N1C=CCC(C(=O)OC2CCC3C4CCc5cc(O)ccc5C4CC23C)=C1 (stereo not given)

Structure (SMILES): FC(F)OC(F)(F)C(F)Cl (stereo not given)
logP [12]: 2.1

logD [3]: 2.3
Structure (SMILES): CCN1CC(C(O)C(CC2CCCCC2)NC(=O)C(Cc2cnc[nH]2)NC(=O)N(Cc2ccc(OC)cc2)C(=O)N(C)CCOCOC)OC1=O (stereo not given)

logP [18]: 3.2
Structure (SMILES): BrC=C(Br)Br

logP [19]: 2.72
Structure (SMILES): COc1ccc(CC2C(=O)NC(C)C(=O)N(C)C3Cc4ccc(cc4)Oc4cc(ccc4O)CC(C(=O)NC(C)C(=O)NC(C)C(=O)N2C)N(C)C3=O)cc1 (stereo not given)

logP [4]: 3.9
Structure (SMILES): CCc1ccc(S(=O)(=O)NCCC[C@H]2C(=O)N(c3ccc(C)cc3)[C@@H]2c2ccc(NS(=O)(=O)c3ccc(C)cc3)cc2)cc1

logP [6]: -1.1
Structure (SMILES): COc1cccc2c1C(=O)c1c(O)c3c(c(O)c1C2=O)C[C@@](O)(C(C)=O)C[C@@H]3O[C@H]1C[C@H](NC(=O)Cc2ccccc2NC(=O)[C@@H]2O[C@H](C(=O)O)[C@@H](O)[C@H](O)[C@H]2O)[C@H](O)[C@H](C)O1

Structure (SMILES): Cc1cccc2c1OP(=O)(OCC1OC(n3cc(C=CBr)c(=O)[nH]c3=O)CC1OC(=O)C(C)C)OC2 (stereo not given)
logP: 2.4

logP [16]: 3.14
Structure (SMILES): Cc1cc(C(=O)N2Cc3ccc(C(=O)N(CCO)CCO)n3Cc3ccccc32)ccc1-c1ccccc1CCF

logD [10]: 0.54
Structure (SMILES): COC(=O)CCC(NC(=O)c1ccc(N(C)Cc2cnc3nc(N)nc(N)c3n2)cc1)C(=O)OC (stereo not given)

logP [6]: -1.7
Structure (SMILES): COc1cccc2c1C(=O)c1c(O)c3c(c(O)c1C2=O)C[C@@](O)(C(C)=O)C[C@@H]3O[C@H]1C[C@H](NC(=O)OCc2ccc(NC(=O)[C@@H]3O[C@H](C(=O)O)[C@@H](O)[C@H](O)[C@H]3O)cc2)[C@H](O)[C@H](C)O1

logP [17]: 4.52
Structure (SMILES): CN1C=CCC(C(=O)O[C@H]2CC[C@H]3[C@@H]4CCc5cc(O)ccc5[C@H]4CC[C@]23C)=C1

logD [3]: 2.03
Structure (SMILES): CCN1C[C@H]([C@@H](O)[C@H](CC2CCCCC2)NC(=O)[C@@H](Cc2cnc[nH]2)NC(=O)[C@@H](Cc2ccc(OC)cc2)NC(=O)N(C)CCOCOCCOC)OC1=O

Structure (SMILES): BrC1CCCCC1
logP [18]: 3.2

logD [5]: 1.37
Structure (SMILES): COc1cccc2c1C(=O)c1c(O)c3c(c(O)c1C2=O)C[C@@](O)(C(C)=O)C[C@@H]3O[C@@H]1C[C@@H](N(C)C)[C@@H](O)[C@@H](C)O1

logP [9]: 2.4
Structure (SMILES): NC(=O)c1ccc2c(ccn2CC(=O)Oc2ccc(-c3ccccc3)cc2)c1

logD [10]: 2.16
Structure (SMILES): CCCCCCCCOC(=O)CCC(NC(=O)c1ccc(N(C)Cc2cnc3nc(N)nc(N)c3n2)cc1)C(=O)OCCCCCCCC (stereo not given)

logP [16]: 4.89
Structure (SMILES): Cc1cc(C(=O)N2Cc3ccc(C(=O)N(CCO)CCF)n3Cc3ccccc32)ccc1-c1ccccc1C(F)(F)F

logP [14]: 3.7
Structure (SMILES): CCCCCC(=O)OCC(=O)[C@@]1(O)CC[C@H]2[C@@H]3CCC4=CC(=O)CC[C@]4(C)[C@H]3[C@@H](O)C[C@@]21C

logP [7]: 2.3
Structure (SMILES): C[C@]12CCC(=O)C=C1CC[C@@H]1[C@@H]2[C@@H](O)C[C@@]2(C)[C@H]1CC[C@]2(O)C(=O)COC(=O)CCCCCC(N)=O

logD [5]: 1.34
Structure (SMILES): COc1cccc2c1C(=O)c1c(O)c3c(c(O)c1C2=O)CC(O)(C(C)=O)CC3OC1CC(O)C(O)C(C)O1 (stereo not given)

Structure (SMILES): COc1ccc(CC2C(=O)NC(C)C(=O)N(C)C3Cc4ccc(cc4)Oc4cc(ccc4OC)CC(C(=O)NC(C)C(=O)NC(C)C(=O)N2C)N(C)C3=O)cc1 (stereo not given)
logP [19]: 3.17

logP [11]: 2.9
Structure (SMILES): CCc1cccc(CC)c1NC(=O)c1c(C)n(Cc2ccccc2)c(C)cc1=O

logP [17]: 3.96
Structure (SMILES): C=CCCN1C=CCC(C(=O)OC2CCC3C4CCc5cc(O)ccc5C4CC23C)=C1 (stereo not given)

logP [19]: 3.19
Structure (SMILES): COc1ccc(CC2C(=O)NC(C)C(=O)N(C)C3Cc4ccc(cc4)Oc4cc(ccc4OC(C)=O)CC(C(=O)NC(C)C(=O)NC(C)C(=O)N2C)N(C)C3=O)cc1 (stereo not given)
